# Assays:
# [1] = Accelerated flow-device release test of injection molded sheets; type: physicochemical
# Protocol: Injection molded samples (Table 3) were prepared using a Model 45 MINI-JECTOR (Mini-Jector Machinery Corp., Newbury, Ohio). The mold to be used produces test sheets that were 7.5×5 cm and 1 mm thick. The polyethylene used was powdered Quantum Microthene (XU594, 35 mesh). The polymer was mixed with the aplatelet clay or aplatelet nanoclay to provide a final ratio of 2 parts trifluralin to 20 parts polymer (24 gm load for each injection). For the PE, the injector is set up to melt the mixture at 127° C., with the injection nozzle heated to 138° C. Polypropylene is melted and injected at 163° C.
# These sheets were washed in 90% MeOH to remove surface TFN contamination and placed into a flow device that exposes the sample to water that contains 0.01% Tween 20 and 0.5% MeOH. The system is operated at room temperature (ca. 23° C.). These conditions are used as an accelerated test in which 24 hours represents 2-3 years of exposure in the environment. During the first few hours, the release rate is high, usually over 100 μg/cm^2/day.
# [2] = Accelerated flow-device release test of extruded/spun fibers; type: physicochemical; settings: trifluralin/nanoclay/polypropylene fiber material, water with 0.01% Tween 20, ca. 23° C.
# Protocol: For extrusion and spinning of fibers, the trifluralin-loaded nanoclay is prepared from batches containing 3500 grams of trifluralin and 5476 grams of the nanoclay by the method described in Example 1. The particle size requirement is that the sample pass through a #60 U.S. Sieve (<250 microns). The loading of the trifuralin/nanoclay/polypropylene fiber material in a polyester matrix that is adjusted to provide between 4 and 8% TFN (w/w) for the first fiber run, and 3% TFN (w/w) for the second test run. Pelletized PP material is used for the extrusion and spinning of fibers.
# These samples are placed in a flow device that exposed the sample to water that contains 0.01% Tween 20. It is operated at room temperature (ca. 23° C.). These conditions are used as an accelerated test in which 24 hours represents 2 or 3 years of exposure in the environment. This correlation is based on the slope of Arrenhius plots over a temperature range of 10° C. to 50° C. similar systems. During the first few hours, the release rate is high, usually over 100 μg/cm^2/day. The test is continued until the release rate reaches the steady state.
smiles,measurement,setting,value
"CCCN(CCC)c1c([N+](=O)[O-])cc(C(F)(F)F)cc1[N+](=O)[O-] [trifluralin, Trifluralin]",release rate during the first few hours,"[1]; injection molded polymer sheets with trifluralin-loaded aplatelet clay or nanoclay, water with 0.01% Tween 20 and 0.5% MeOH, ca. 23° C., first few hours",over 100 μg/cm^2/day
same,rate of trifluralin release from polypropylene relative to standard polyethylene,[1]; polypropylene matrix versus standard polyethylene,≥ 2%
same,release rate during the first few hours,[2],over 100 μg/cm^2/day

# From patent US20160057994A1, “Aplatelet Clays for Sustained Release of Active Ingredients” (BioGuard Research and Development, Inc., priority 2013, published 2016)
